Source: ChEMBL document CHEMBL1201862, “PubChem BioAssay data set” (2004)
The source made the active and inactive calls.

Experiments:
[1] = molecular target: Dual specificity protein phosphatase 3 (Homo sapiens, UniProt P51452); test: VHR1 inhibitor Ki determination, SAR follow-up, biochemical, colorimetric (AID 2004)
Tumor necrosis factor = Tumor necrosis factor (Homo sapiens, UniProt P01375); test: TNFa-triggered NF-kB activation inhibitors, SAR follow-up, cell-based, revised (AID 2337); format: functional
cells [2] = format: functional
Interleukin-8 [3] = molecular target: T1, Interleukin-8 (Homo sapiens, UniProt P10145); test: SAR analysis of GM-Tri-DAP induced IL-8 secretion in MCF-7/NOD1 cells - Set 2. [Related pubchem assays (depositor defined):AID1575, AID1578, AID2333]; format: functional, cell-based
T1 sequence (P10145 whole entry): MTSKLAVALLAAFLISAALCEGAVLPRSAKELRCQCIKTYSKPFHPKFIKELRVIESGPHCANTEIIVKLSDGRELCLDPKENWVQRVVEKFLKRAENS

[4] = HepG2 cell cytotoxicity, dose response, cytotoxicity control for non-replicating M. tuberculosis project (AID 489018); format: functional; details: Mycobacterium tuberculosis
HEK293 [5] = test: cells; details: Homo sapiens
[6] = cytotoxicity toward NIH3T3 fibroblasts, dose response, counter-screen, cell-based, ATP luminescence, mouse fibroblasts (AID 2010); format: functional;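 also: cells exposed to compound for about 90 hours before reading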
[7] = microbe, parasite or virus in culture; format: functional; details: Mycobacterium tuberculosis
[8] = molecular target: Nucleotide-binding oligomerization domain-containing protein 1 (Homo sapiens, UniProt Q9Y239); test: NOD1 signaling inhibitors, SAR follow-up, revised (AID 2333); format: functional
[9] = molecular target: Nucleotide-binding oligomerization domain-containing protein 2 (Homo sapiens, UniProt Q9HC29); test: PubChem AID 2334; format: functional
Interleukin-8 [10] = molecular target: T1, Interleukin-8; test: SAR analysis of Tumor necrosis factor alpha (TNF-alpha) induced IL-8 secretion in MCF-7/NOD1 cells - Set 2. [Related pubchem assays (depositor defined):AID1575, AID2250, AID2260]; format: functional, cell-based
[11] = inhibitors of intracellular T. cruzi replication, confirmation, NIH3T3 host cells, beta-gal luminescence (AID 2044); format: functional, cell-based;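 also: intracellular parasites grown in NIH/3T3 mouse fibroblasts as host cells; luminescent beta-galactosidase reporter signal from transgenic T. cruzi replicating inside host cells; inhibitors lower the luminescence signal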
[12] = THP-1 cell cytotoxicity, dose response, cytotoxicity control for non-replicating M. tuberculosis project (AID 489025); format: functional
[13] = Vero E6 cell cytotoxicity, dose response, cytotoxicity control for non-replicating M. tuberculosis project, secondary assay (AID 492998); format: functional, VeroE6; details: Vero C1008
[14] = molecular target: T2, Neuropeptides B/W receptor type 1 (Homo sapiens, UniProt P48145); test: Fluorescence-based dose response cell-based high throughput screening assay to identify antagonists of the G-protein coupled receptor 7 (GPR7). [Related pubchem assays: 1952 (Screening assay (GPR7 antagonists).), 1880 (Summary AID.)]; format: functional
T2 sequence (P48145 whole entry): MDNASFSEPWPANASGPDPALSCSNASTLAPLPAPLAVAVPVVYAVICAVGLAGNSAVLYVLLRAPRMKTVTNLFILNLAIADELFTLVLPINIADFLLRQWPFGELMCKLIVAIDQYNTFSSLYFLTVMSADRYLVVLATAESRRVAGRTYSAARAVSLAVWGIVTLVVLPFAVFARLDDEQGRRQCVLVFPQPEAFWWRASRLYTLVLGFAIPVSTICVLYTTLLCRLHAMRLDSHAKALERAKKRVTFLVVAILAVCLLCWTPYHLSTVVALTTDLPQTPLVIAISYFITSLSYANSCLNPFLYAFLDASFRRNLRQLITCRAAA

[15] = molecular target: Melanin-concentrating hormone receptor 1 (Homo sapiens, UniProt Q99705); test: Fluorescence-based counterscreen for antagonists of the G-protein coupled receptor 7 (GPR7): cell-based high throughput dose response assay to identify antagonists of the melanin-concentrating hormone receptor 1 (MCHR1).; format: functional
Bcl-2-like protein 10 = molecular target: T3, Bcl-2-like protein 10 (Homo sapiens, UniProt Q9HD36); test: displacers of TR3 peptide from Bcl-B, primary screen, selectivity assay for Bfl-1 inhibitor project, biochemical, fluorescence polarization, FITC-TR3 peptide (AID 748);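 also: fluorescence polarization from a fluorescein-labelled TR3 peptide binding purified Bcl-B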
T3 sequence (Q9HD36 whole entry): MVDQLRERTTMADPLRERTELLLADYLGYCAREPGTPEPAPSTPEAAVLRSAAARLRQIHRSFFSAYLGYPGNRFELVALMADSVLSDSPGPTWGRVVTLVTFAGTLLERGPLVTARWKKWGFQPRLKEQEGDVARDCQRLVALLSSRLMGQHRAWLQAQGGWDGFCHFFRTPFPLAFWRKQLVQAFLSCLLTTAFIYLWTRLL

HEK293 [16] = test: Cytotoxicity assay in HEK293 cells. [Related pubchem assays (depositor defined):AID1266, AID1269, AID1270, AID1271, AID1280, AID1281, AID1282, AID1283, AID1287, AID1289, AID1290, AID1291, AID1292, AID1293, AID1294, AID1295, AID1299, AID1302, AID1364, AID1365, AID1366, AID1367, AID1369, AID1370, AID1371, AID1372, AID1373, AID1374, AID1375, AID1384 …; format: functional, cell-based; details: Homo sapiens
[17] = molecular target: T4, Luciferin 4-monooxygenase (Photinus pyralis, UniProt P08659); test: In vitro luciferase assay using purified luciferase. [Related pubchem assays: 1299, 1270, 1295, 1375, 1287, 1281, 1293, 1291, 1289, 1280, 465, 1364, 1282, 1372, 1365, 1370, 1367, 1366, 1266, 1373, 1292, 1290, 1302, 1371, 1283, 1271, 1294, 1374, 1368, 1369 ]
HEK293 [18] = test: PMA/Ionomycin induced NF-kB luciferase assay in 293- NF-kB-Luc stable cells. [Related pubchem assays: 1299, 1270, 1295, 1375, 1287, 1281, 1293, 1291, 1289, 1280, 465, 1364, 1282, 1372, 1365, 1370, 1367, 1366, 1269, 1373, 1292, 1290, 1302, 1371, 1283, 1271, 1294, 1374, 1368, 1369 ]; format: functional, cell-based; details: Homo sapiens
HEK293 [19] = test: TNF Induced NF-kB Luciferase in 293-NF-kB-Luc Stable Cells. [Related pubchem assays: 1266, 1299, 1269, 1373, 1292, 1290, 1302, 1371, 1283, 1270, 1295, 1271, 1375, 1294, 1374, 1281, 1293, 1291, 1289, 1280, 465, 1368, 1364, 1282, 1372, 1365, 1369, 1370, 1367, 1366 ]; format: functional, cell-based; details: Homo sapiens
[20] = THP-1 cell cytotoxicity, dose response, cytotoxicity control for Vif-APOBEC3G degradation inhibitor project, THP-1 cells (AID 1117359); format: functional; details: Human immunodeficiency virus 1, THP-1
Hexokinase HKDC1 = Hexokinase HKDC1 (Homo sapiens, UniProt Q2TB90); test: HKDC1 hexokinase inhibitors, dose response, biochemical, W721R variant (AID 504729); format: functional
Beta Lactamase = Beta Lactamase (Pseudomonas aeruginosa, UniProt Q932Y6); test: beta-lactamase reporter inhibitor potency, dose response, artefact control for NOD2-RIPK2 interaction inhibitor project, BLA reporter cells, FRET fluorescence (AID 651552); format: functional, cell-based
[21] = Fluorescence-based cell-based high throughput dose response assay for inhibitors of the interaction of nucleotide-binding oligomerization domain containing 2 (NOD2) and the receptor-interacting serine-threonine kinase 2 (RIPK2).; format: functional; details: Homo sapiens
Beta-galactosidase = Beta-galactosidase (Escherichia coli, UniProt Q8VNN2); test: beta-galactosidase enzyme inhibitors and activators, dose response, artefact control for CCR6 antagonist project, biochemical, E. coli enzyme, set 3 (AID 504712); format: functional
Genome polyprotein = Genome polyprotein (dengue virus type 2, UniProt P29990); test: Dengue-2 NS5 methyltransferase inhibitors, primary screen, biochemical, confirmation dose response (AID 588689); format: functional
[22] = molecular target: Acylamino-acid-releasing enzyme (Homo sapiens, UniProt P13798); test: PME-1 inhibitor potency by in-gel ABPP, dose response, selectivity assay for PME-1 inhibitor project, cell lysate, mouse brain cytosol, FP-rhodamine, panel member APEH Assay Panel member description: Inhibition of N-acylaminoacyl-peptide hydrolase (APEH) (anti-target) (AID 2366)
[23] = molecular target: T5, Voltage-gated N-type calcium channel alpha-1B subunit/Amyloid beta A4 precursor protein-binding family A member 1 (Homo sapiens, UniProt Q00975+Q02410); test: disruptors of Mint-PDZ/N-type channel peptide interaction – biochemical, HTRF, set 2, SAR follow-up (AID 434980); format: functional
[24] = molecular target: T5, Voltage-gated N-type calcium channel alpha-1B subunit/Amyloid beta A4 precursor protein-binding family A member 1; test: disruptors of Mint-PDZ/N-type channel peptide interaction – biochemical, HTRF, SAR follow-up (AID 2489); format: functional
[25] = molecular target: T2, Neuropeptides B/W receptor type 1; test: GPR7 antagonist potency, late-stage follow-up, cell-based, fluorescence, dose response (AID 463251); format: functional
[26] = molecular target: NACHT, LRR and PYD domains-containing protein 3 (Homo sapiens, UniProt Q96P20); test: NALP3 inhibitors in yeast, dose response, luminescent (AID 488799); format: functional
[27] = molecular target: T4, Luciferin 4-monooxygenase; test: firefly luciferase enzyme inhibitors, dose response, biochemical, luminescence (AID 1891)
[28] = molecular target: Induced myeloid leukemia cell differentiation protein Mcl-1 (Homo sapiens, UniProt Q07820); format: functional
[29] = Luminescence Cell-Based Dose Confirmation HTS to Identify Inhibitors of Platelet Dense Granule Release. [Related pubchem assays: 1663 (Primary HTS), 1678 (Summary of Project)]; format: functional
[30] = molecular target: Neurotensin receptor type 1 (Homo sapiens, UniProt P30989); format: functional;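 also: Image-based confirmatory dose-response assay measuring agonist activity at NTR1; NTR1-expressing U2OS osteosarcoma cells imaged for beta-arrestin GFP spot formation; agonist potency where compounds increase beta-arrestin recruitment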
[31] = molecular target: T6, Oxysterols receptor LXR-beta (Homo sapiens, UniProt P55055); format: functional, cell-based;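 also: Cell-based luminescence dose-response assay of agonist activity at LXR, run as a confirmatory counterscreen to a daf-12 agonist screen; HEK293 cells with Gal4-LXR fusion and GAL4-driven luciferase reporter; agonist potency from rising luciferase signal of a Gal4-LXR reporter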
T6 sequence (P55055 whole entry): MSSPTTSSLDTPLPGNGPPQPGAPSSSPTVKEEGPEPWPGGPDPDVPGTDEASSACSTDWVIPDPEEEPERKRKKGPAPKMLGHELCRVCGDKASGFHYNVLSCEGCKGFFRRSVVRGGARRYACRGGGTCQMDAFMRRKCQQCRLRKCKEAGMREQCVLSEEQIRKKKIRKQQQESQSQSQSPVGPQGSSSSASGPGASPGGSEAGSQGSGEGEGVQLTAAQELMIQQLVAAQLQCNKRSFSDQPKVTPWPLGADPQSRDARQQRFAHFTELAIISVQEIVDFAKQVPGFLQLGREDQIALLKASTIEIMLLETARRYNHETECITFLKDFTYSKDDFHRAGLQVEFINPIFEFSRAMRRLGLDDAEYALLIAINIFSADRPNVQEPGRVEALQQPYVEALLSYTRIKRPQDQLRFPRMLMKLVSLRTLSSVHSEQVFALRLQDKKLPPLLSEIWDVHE

cells [32] = test: cells

T4 sequence (P08659 whole entry): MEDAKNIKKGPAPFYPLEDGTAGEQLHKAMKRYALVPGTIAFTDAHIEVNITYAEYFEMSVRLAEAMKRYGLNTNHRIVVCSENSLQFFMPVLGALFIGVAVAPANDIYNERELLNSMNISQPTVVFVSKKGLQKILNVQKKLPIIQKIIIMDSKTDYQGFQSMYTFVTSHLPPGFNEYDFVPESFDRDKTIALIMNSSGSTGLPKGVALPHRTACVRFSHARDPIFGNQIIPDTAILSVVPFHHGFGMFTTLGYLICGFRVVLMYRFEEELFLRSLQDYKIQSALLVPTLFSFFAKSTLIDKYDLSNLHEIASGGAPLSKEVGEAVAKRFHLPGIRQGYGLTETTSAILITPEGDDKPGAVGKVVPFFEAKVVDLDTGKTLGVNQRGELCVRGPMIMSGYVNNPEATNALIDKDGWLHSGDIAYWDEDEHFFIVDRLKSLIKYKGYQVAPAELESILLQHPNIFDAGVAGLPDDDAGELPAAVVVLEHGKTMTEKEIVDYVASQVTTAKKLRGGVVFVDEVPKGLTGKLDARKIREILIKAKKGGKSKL
T5 sequence (Q00975 whole entry): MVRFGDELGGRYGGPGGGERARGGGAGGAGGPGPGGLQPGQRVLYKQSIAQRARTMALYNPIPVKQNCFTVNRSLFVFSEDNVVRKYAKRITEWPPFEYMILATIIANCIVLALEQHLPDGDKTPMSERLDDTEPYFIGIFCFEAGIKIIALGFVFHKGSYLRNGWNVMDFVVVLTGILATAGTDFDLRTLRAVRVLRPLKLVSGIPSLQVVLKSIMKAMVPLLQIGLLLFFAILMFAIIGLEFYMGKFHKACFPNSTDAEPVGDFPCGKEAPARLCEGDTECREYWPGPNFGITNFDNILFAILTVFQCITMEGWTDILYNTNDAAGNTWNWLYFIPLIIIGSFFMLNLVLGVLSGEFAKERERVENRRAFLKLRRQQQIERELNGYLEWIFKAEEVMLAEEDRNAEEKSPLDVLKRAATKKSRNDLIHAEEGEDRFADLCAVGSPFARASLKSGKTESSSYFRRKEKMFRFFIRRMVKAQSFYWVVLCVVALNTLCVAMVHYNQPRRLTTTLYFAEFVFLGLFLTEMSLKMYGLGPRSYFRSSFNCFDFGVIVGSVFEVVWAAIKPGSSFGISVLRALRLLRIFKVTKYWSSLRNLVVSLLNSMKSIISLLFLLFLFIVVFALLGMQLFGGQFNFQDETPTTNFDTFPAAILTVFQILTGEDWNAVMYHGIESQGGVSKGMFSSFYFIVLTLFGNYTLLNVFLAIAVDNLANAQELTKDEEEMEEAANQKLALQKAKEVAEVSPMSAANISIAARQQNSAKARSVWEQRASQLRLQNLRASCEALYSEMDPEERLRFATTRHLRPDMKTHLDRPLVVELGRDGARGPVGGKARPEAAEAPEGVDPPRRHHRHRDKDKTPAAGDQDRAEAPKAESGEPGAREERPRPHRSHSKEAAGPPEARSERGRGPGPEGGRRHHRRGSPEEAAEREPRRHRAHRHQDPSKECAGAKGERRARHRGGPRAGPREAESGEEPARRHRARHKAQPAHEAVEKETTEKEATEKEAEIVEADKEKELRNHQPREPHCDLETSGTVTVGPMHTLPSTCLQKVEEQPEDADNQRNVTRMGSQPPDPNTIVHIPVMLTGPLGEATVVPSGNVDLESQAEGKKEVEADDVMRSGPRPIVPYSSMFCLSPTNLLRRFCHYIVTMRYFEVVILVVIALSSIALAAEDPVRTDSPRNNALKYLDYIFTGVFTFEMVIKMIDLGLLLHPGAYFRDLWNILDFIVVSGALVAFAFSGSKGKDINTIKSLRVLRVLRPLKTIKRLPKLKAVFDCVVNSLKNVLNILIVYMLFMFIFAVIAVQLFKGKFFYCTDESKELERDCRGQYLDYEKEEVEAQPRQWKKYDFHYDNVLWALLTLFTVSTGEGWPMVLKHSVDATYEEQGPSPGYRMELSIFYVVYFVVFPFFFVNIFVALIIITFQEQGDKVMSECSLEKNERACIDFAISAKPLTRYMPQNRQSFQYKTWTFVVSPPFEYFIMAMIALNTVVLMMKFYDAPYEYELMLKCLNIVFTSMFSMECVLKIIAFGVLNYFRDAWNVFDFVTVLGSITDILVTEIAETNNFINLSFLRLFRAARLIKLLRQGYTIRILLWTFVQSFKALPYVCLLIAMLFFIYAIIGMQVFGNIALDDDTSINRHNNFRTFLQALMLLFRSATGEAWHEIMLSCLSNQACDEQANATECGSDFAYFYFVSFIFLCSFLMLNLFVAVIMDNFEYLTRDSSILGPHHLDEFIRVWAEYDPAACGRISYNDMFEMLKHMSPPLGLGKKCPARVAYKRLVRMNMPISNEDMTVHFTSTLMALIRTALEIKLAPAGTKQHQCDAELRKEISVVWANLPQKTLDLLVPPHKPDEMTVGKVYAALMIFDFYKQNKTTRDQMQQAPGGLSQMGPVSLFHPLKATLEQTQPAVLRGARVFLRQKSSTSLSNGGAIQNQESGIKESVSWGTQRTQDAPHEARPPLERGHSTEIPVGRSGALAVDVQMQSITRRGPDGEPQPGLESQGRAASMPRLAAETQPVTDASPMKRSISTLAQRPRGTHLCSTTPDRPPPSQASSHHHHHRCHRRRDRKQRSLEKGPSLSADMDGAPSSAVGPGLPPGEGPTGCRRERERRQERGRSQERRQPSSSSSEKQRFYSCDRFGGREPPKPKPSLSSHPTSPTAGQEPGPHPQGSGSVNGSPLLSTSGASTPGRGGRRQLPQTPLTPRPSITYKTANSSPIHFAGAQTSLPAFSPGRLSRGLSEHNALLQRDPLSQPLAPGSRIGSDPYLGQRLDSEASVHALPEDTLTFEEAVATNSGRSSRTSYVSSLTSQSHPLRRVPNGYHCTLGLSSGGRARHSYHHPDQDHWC
T5 sequence (Q02410 whole entry): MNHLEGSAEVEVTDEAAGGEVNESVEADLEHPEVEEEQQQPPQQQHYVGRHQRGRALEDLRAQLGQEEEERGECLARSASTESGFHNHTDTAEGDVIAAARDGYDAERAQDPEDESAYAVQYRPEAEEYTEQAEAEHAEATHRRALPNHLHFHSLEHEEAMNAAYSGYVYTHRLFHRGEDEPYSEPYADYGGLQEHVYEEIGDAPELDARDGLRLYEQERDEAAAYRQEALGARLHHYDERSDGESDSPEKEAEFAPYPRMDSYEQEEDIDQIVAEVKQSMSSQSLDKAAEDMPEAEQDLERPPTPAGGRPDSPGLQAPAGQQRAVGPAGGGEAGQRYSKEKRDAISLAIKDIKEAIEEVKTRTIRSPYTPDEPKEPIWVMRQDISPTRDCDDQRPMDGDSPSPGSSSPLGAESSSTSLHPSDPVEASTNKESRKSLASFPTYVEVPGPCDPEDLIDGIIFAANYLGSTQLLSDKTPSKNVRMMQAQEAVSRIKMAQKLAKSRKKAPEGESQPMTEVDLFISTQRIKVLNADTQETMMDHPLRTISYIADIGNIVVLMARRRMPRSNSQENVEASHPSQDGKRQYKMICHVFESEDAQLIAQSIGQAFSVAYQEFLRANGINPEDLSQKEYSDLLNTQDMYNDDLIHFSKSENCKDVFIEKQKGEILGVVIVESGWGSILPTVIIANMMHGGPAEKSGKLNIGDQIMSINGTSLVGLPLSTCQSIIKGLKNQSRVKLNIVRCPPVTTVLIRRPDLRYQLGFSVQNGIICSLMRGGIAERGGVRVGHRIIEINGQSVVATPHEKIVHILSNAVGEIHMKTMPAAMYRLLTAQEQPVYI
Induced myeloid leukemia cell differentiation protein Mcl-1, sequence (Q07820 whole entry): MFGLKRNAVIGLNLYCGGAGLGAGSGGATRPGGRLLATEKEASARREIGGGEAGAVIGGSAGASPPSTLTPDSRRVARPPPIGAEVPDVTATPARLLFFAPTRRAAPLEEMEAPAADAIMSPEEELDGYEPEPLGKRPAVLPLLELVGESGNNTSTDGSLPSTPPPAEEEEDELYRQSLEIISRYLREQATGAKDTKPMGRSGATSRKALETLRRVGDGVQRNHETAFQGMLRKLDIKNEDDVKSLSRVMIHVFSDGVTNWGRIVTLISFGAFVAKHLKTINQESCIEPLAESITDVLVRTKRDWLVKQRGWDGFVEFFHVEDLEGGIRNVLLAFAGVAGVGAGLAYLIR
Neurotensin receptor type 1, sequence (P30989 whole entry, the tested form may be a part): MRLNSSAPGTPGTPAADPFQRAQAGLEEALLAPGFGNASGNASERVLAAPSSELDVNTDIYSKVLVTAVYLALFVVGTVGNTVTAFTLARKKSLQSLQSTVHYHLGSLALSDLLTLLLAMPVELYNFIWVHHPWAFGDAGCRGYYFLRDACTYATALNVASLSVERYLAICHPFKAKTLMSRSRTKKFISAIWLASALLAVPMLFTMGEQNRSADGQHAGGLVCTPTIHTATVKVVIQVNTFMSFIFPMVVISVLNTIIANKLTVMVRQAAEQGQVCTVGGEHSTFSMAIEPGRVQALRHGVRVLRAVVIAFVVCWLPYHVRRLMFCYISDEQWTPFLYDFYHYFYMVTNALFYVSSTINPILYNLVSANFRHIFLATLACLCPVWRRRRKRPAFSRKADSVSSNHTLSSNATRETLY
Tumor necrosis factor, sequence (P01375 whole entry): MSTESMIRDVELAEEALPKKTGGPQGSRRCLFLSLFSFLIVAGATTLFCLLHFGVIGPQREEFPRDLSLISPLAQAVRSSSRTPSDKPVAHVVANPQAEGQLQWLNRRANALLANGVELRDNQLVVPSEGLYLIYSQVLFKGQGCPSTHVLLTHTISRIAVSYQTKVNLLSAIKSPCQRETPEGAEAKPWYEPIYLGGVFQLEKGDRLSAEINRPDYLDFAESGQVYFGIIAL
Beta Lactamase, sequence (Q932Y6 whole entry, the tested form may be a part): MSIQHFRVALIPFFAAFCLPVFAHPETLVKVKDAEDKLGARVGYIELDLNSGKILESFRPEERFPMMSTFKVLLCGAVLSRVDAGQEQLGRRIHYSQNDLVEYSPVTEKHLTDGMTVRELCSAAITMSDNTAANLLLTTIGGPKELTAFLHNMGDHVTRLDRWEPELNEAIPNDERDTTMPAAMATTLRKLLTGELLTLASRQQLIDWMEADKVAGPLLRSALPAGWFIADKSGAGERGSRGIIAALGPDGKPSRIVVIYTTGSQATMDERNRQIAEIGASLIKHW

In the case of `Cc1cc(Br)c(-c2ccc(/C=C3/NC(=S)NC3=O)o2)cc1C`, the Ki [1] is reported as 3.19 µM (active).

In the case of `CCC(=O)Nc1nc2ccccc2n1Cc1ccc(Cl)cc1`, the IC50 (Tumor necrosis factor) is reported as > 20 µM (inactive), the IC50 (cells [2]) is reported as 0.29 µM (active) and the IC50 (Interleukin-8 [3]) is reported as > 25 µM (inactive). For the same compound, the CC50 [4] was > 20 µM (active), the IC50 (HEK293 [5]) was > 20 µM (inactive) and the EC50 [6] was 8.28 µM (active). The CC50 [7] was 33.9 µM (active), the IC50 [8] was 12.3 µM (active) and the IC50 [9] was 15.8 µM (active). The IC50 (Interleukin-8 [10]) was > 25 µM (inactive), the EC50 [11] was 1.1 µM (active) and the CC50 [12] was > 40 µM (active). The CC50 [13] was 11 µM (active).

For `CN(C)C1=NC[C@H](Cc2ccccc2)N1CC1CCC(C(C)(C)C)CC1` (stereo partly drawn), the IC50 [14] was 7.86 µM (active) and the IC50 [15] was 10.6 µM (not active).

For `CC(=O)C1=C(O)C(=O)N(Cc2ccccc2)C1c1ccco1` (stereo not drawn), the IC50 (Bcl-2-like protein 10) was > 100 µM (inactive).

With `Cc1oc2cc3c(C(=O)OCCN(C)C)c(C)oc3cc2c1C(=O)OCCN(C)C` the EC50 (HEK293 [16]) was 13.9 µM (inactive), the EC50 [17] was > 8 µM (not active) and the EC50 (HEK293 [18]) was 0.781 µM (active). For the same compound, the EC50 (HEK293 [19]) was 0.11 µM (active).

For `Cc1[nH]c2ccccc2c1C1=CC(=O)C=CC1=O`, the CC50 [20] was > 40 µM (active), the IC50 (Hexokinase HKDC1) was 3.4 µM (active) and the IC50 (Beta Lactamase) was 19.9 µM (inactive). The IC50 [21] was 3.46 µM (active), the IC50 (Beta-galactosidase) was > 66.6 µM (inactive) and the IC50 (Genome polyprotein) was 17.7 µM (active).

For `CC(C)(C)S(=O)(=O)/C(C#N)=C/c1cccn1S(=O)(=O)c1ccccc1`, the IC50 [22] was > 50 µM (inactive).

For `COc1ccc(CNC(=O)COC(=O)c2cccc3ccccc23)cc1`, the IC50 [23] was 26.4 µM (active) and the IC50 [24] was > 56.8 µM (inactive).

With `CCOc1ccc(CCOc2c(Cl)cnn(-c3ccccc3)c2=O)cc1OCC` the IC50 [25] was > 20 µM (inactive).

For `Oc1c(/C=N/c2ccccn2)sc2ccccc12`, the IC50 [26] was 10.2 µM (active), the EC50 [27] was 1.8 µM (active) and the IC50 [28] was 1.64 µM (active). The EC50 [29] was 11.5 µM (active).

In the case of `O=C(N/N=C/c1cn(-c2ccccc2)nc1-c1cc2ccccc2o1)c1cccnc1`, the EC50 [30] is reported as > 40 µM (inactive), the EC50 [31] is reported as > 67.5 µM (inactive) and the EC50 (cells [32]) is reported as > 67.5 µM (inactive).
